According to patent publication US20040028714A1, “Composition having insect repellent characteristics” (priority 2000, published 2004):
Values joined by “and” are separate entries in the source; they are usually repeats but may differ in a detail not shown here. Equal entries are not always repeated.

What was measured:
[1] = system: German cockroaches (Blatella Germanica); assay: Cockroach repellency screening on partially treated formica surface (Example 2); assay type: in vivo; details: cockroaches, 20 mg/m^2 on formica
Experimental: The effectiveness of compounds of formula I as an insect repellent was determined using German cockroaches exposed to a formica surface partially treated/partially untreated with a test compound of formula I. The study was conducted in an air conditioned laboratory at a temperature of 22°±2° C. under a normal day/night cycle, using German cockroaches (Blatella Germanica) of mixed sex and age. The study was conducted over a 3 day period and the repellent effectiveness assessed 1, 2 and 3 days after cockroach introduction. A rectangle of formica 40 cm×30 cm was treated at 20 mg/m^2 with a test compound of formula I. This was achieved by soaking a paper wipe (Rag on a Roll ca 20 cm×20 cm) in a solution of the test compound in ethanol, squeezing out the excess liquid and wiping over the surface to give the required coverage. This was checked by weighing the cloth after application. The surface was allowed to dry. A similar rectangle was wiped with ethanol alone (untreated surface). The treated formica rectangle was placed on the bench and a plastic container was placed on the rectangle. This had been treated with fluon to prevent cockroach escape. Two sheets of formica (10 cm×10 cm) were placed on the formica, one on the treated surface and one on the untreated surface. This acted as a cockroach harbourage. The formica sheet to be used in the treated section was treated at the same rate as the treated formica. The formica was placed on two 1 cm high bottle tops to allow cockroaches access under the formica. 20 German cockroaches were added (5 adults and 15 nymphs) to the centre of the formica. No food and water was supplied for these cockroaches. At 1, 2 and 3 days after cockroach introduction the number of cockroaches under each harbourage was counted. After each count the harbourage position was change to avoid the possibility of […] were replaced and new cockroaches were added to replace any dead cockroaches. The above was repeated 3 times to provide a total of 4 replicates.

[2] = system: Black Ants (Ochetellus sp); assay: Ant repellency on half-treated formica (Example 4); assay type: in vivo; details: 20 mg/m^2 on formica; for Number of Black Ants present, Treated Section / Number of Black Ants present, Untreated Section / Number of Black Ants, Dead: single replicates (n = 20); for Number of Black Ants present, Treated Section, Total / Number of Black Ants present, Untreated Section, Total / Number of Black Ants, Dead, Total: total of 4 replicates (80)
Experimental: The effectiveness of compound 2 (example 1) as an insect repellent was determined using ants exposed to a formica surface partially treated/partially untreated with compound 2, and was directly compared to the repellency of the well known insect repellents Farnesol and Dihydrofarnesal.
The study was conducted in an air conditioned laboratory at a temperature of 22°±2° C. under a normal day/night cycle, using Black Ants (Ochetellus sp) of mixed sex and age. The study ws conducted over a 3 day period and the repellent effectiveness assessed 1, 2 and 3 days after ant introduction.
One half of a rectangle of formica 40 cm×30 cm was treated at 20 mg/m^2 with the test compounds. This was achieved by soaking a paper wipe (Rag On A Roll approximately 20 cm×20 cm) in a solution of the test compound in ethanol, squeezing out the excess liquid and wiping over the surface to give the required coverage. This was checked by weighing the cloth after application. The surface was allowed to dry. The other half was wiped with ethanol alone (untreated surface).
The treated formica rectangle was placed on the bench and a glass ring (diameter 20 cm) was placed on the rectangle. This had been treated with fluon to prevent ant escape.
A small plastic container 2 cm in diameter was placed on the formica, one on the treated surface and one on the untreated surface. The plastic container placed on the treated surface had repellent applied in the same way as the treated formica. The plastic container on the untreated surface was wiped with ethanol.
24 hours after treatment (1 day) 20 ants were added to the centre of the formica. No food and water was supplied for these ants. 2 hours after this the number of ants on the treated and untreated surfaces was counted.
The above was repeated 3 times to provide a total of 4 replicates.
The above was repeated at 2 days and 3 days. New ants were used at each time period.

[3] = ants, average of days 1, 2 and 3

CCNC(=O)C1CC(C)CCC1C(C)C (stereo not drawn) [Compound 2, N-ethyl-p-menthane-3-carboxamide]
Percentage Dead ([1]; 1 day after treatment): 0% | Percentage Present, Treated Section ([1]; 1 day after treatment): 17.5% | Percentage Present, Untreated Section ([1]; 1 day after treatment): 82.5% | Percentage Dead ([1]; 2 days after treatment): 1.2% | Percentage Present, Treated Section ([1]; 2 days after treatment): 16.3% | Percentage Present, Untreated Section ([1]; 2 days after treatment): 82.5% | Percentage Dead ([1]; 3 days after treatment): 2.5% | Percentage Present, Treated Section ([1]; 3 days after treatment): 13.8% | Percentage Present, Untreated Section ([1]; 3 days after treatment): 83.7% | Percentage Present, Treated Section, Average ([1]; average of days 1, 2 and 3): 15.9% | Percentage Present, Untreated Section, Average ([1]; average of days 1, 2 and 3): 82.9% | ant repellency (in words) ([2]; 1, 2 and 3 days after treatment): superior to these two products | Number of Black Ants present, Treated Section ([2]; day 1): 0 (2×) and 2 and 1 | Number of Black Ants present, Untreated Section ([2]; day 1): 20 (2×) and 18 and 19 | Number of Black Ants, Dead ([2]; day 1): 0 | Number of Black Ants present, Treated Section, Total ([2]; day 1): 3 | Number of Black Ants present, Untreated Section, Total ([2]; day 1): 77 | Number of Black Ants, Dead, Total ([2]; day 1): 0 | Number of Black Ants present, Treated Section ([2]; day 2): 1 and 3 (2×) and 2 | Number of Black Ants present, Untreated Section ([2]; day 2): 19 and 17 (2×) and 18 | Number of Black Ants, Dead ([2]; day 2): 0 | Number of Black Ants present, Treated Section, Total ([2]; day 2): 9 | Number of Black Ants present, Untreated Section, Total ([2]; day 2): 71 | Number of Black Ants, Dead, Total ([2]; day 2): 0 | Number of Black Ants present, Treated Section ([2]; day 3): 0 and 1 and 2 and 3 | Number of Black Ants present, Untreated Section ([2]; day 3): 20 and 19 and 18 and 17 | Number of Black Ants, Dead ([2]; day 3): 0 | Number of Black Ants present, Treated Section, Total ([2]; day 3): 6 | Number of Black Ants present, Untreated Section, Total ([2]; day 3): 74 | Number of Black Ants, Dead, Total ([2]; day 3): 0 | Percentage Dead ([2]; ants, 1 day after treatment): 0% | Percentage Present, Treated Section ([2]; ants, 1 day after treatment): 3.7% | Percentage Present, Untreated Section ([2]; ants, 1 day after treatment): 96.3% | Percentage Dead ([2]; ants, 2 days after treatment): 0% | Percentage Present, Treated Section ([2]; ants, 2 days after treatment): 11.2% | Percentage Present, Untreated Section ([2]; ants, 2 days after treatment): 88.8% | Percentage Dead ([2]; ants, 3 days after treatment): 0% | Percentage Present, Treated Section ([2]; ants, 3 days after treatment): 7.5% | Percentage Present, Untreated Section ([2]; ants, 3 days after treatment): 92.5% | Percentage Dead, Average [2, 3]: 0% | Percentage Present, Treated Section, Average [2, 3]: 7.5% | Percentage Present, Untreated Section, Average [2, 3]: 92.5%
